Five molecules from PubChem BioAssay AID180 (DTP/NCI, 2004) can be followed below.

What is called T/C is the ratio of treated to control.

Where “and” joins values, the source holds several entries; their conditions need not be identical. Equal entries are not always repeated.

This assay deals with BDF1 mice, Adenocarcinoma 755 s.c., tumor weight T/C. The assay is described as follows: NCI In Vivo Anticancer Drug Screen. Data for tumor model Adenocarcinoma 755 (subcutaneous) in B6D2F1 (BDF1) mice. As to conditions: endpoint: mean tumor weight, higher = larger tumour. The method, boiled down: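 Transplantable tumor implanted; mice dosed with compound or vehicle; survival or tumor size recorded; ratio of treated to vehicle control reported.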

Take `CS(=O)(=O)OCCCCCCCCCOS(C)(=O)=O`: the T/C is 35 % of control (dose: 2.0 mg/kg/injection, schedule: Q01DX011 (ip), vehicle: carboxymethylcellulose (CMC)); 49 % of control (dose: 4.0 mg/kg/injection, schedule: Q01DX011 (ip), vehicle: carboxymethylcellulose (CMC)); 54 % of control (dose: 8.0 mg/kg/injection, schedule: Q01DX011 (ip), vehicle: carboxymethylcellulose (CMC)); 26 % of control (dose: 16.0 mg/kg/injection, schedule: Q01DX011 (ip), vehicle: carboxymethylcellulose (CMC)); 7 % of control (dose: 28.0 mg/kg/injection, schedule: Q01DX011 (ip), vehicle: carboxymethylcellulose (CMC)).
For `CC1(c2ccccc2)O[C@@H]2C[C@H]3[C@@H]4CCC5=CC(=O)C=C[C@]5(C)[C@@]4(F)[C@@H](O)C[C@]3(C)[C@]2(C(=O)CO)O1` (some centres not stated), the T/C by setting is: (dose: 2.75 mg/kg/injection, schedule: Q01DX011 (sc), vehicle: steriod suspending solution) 42 % of control and 45 % of control; (dose: 5.5 mg/kg/injection, schedule: Q01DX011 (sc), vehicle: steriod suspending solution) 14 % of control and 24 % of control; (dose: 11.0 mg/kg/injection, schedule: Q01DX011 (sc), vehicle: steriod suspending solution) 2 % of control and 24 % of control.
With `CC(=O)NCCSC(=O)C(=O)SCCNC(C)=O`, the T/C (dose: 25.0 mg/kg/injection, schedule: Q01DX011 (ip), vehicle: saline) is 62 % of control; the T/C (dose: 50.0 mg/kg/injection, schedule: Q01DX011 (ip), vehicle: saline) is 65 % of control; the T/C (dose: 200.0 mg/kg/injection, schedule: Q01DX011 (ip), vehicle: saline) is 42 % of control and 63 % of control.
Take `Nc1ccn(C2OC(CO)C(O)C2O)c(=O)n1` (configuration not stated): the T/C was 36 % of control (dose: 15.0 mg/kg/injection, schedule: Q01DX011 (ip), vehicle: saline); 14 % of control (dose: 27.0 mg/kg/injection, schedule: Q01DX011 (ip), vehicle: saline); 36 % of control (dose: 30.0 mg/kg/injection, schedule: Q01DX011 (ip), vehicle: saline); 7 % of control (dose: 40.0 mg/kg/injection, schedule: Q01DX011 (ip), vehicle: saline); 15 % of control (dose: 60.0 mg/kg/injection, schedule: Q## X024 (ip), vehicle: saline); 8 % of control (dose: 120.0 mg/kg/injection, schedule: Q## X024 (ip), vehicle: saline).
With `CSc1ncnc2c1ncn2CCCl`, the T/C was 92 % of control (dose: 1.5 mg/kg/injection, schedule: Q01DX011 (ip), vehicle: carboxymethylcellulose (CMC)); 80 % of control (dose: 3.0 mg/kg/injection, schedule: Q01DX011 (ip), vehicle: carboxymethylcellulose (CMC)); 31 % of control (dose: 6.0 mg/kg/injection, schedule: Q01DX011 (ip), vehicle: carboxymethylcellulose (CMC)); 34 % of control (dose: 6.2 mg/kg/injection, schedule: Q01DX011 (ip), vehicle: carboxymethylcellulose (CMC)); 4 % of control (dose: 12.5 mg/kg/injection, schedule: Q01DX011 (ip), vehicle: carboxymethylcellulose (CMC)).
